The values below come from patent US20190111158A1, “INJECTION COMPOSITION FOR LABELING LESION” (NATIONAL CANCER CENTER, priority 2016, published 2019).

Data set [1] in a line: near-infrared fluorescence signal intensity of ICG-MAA complexes at various ICG/MAA mixing ratios. Format: physicochemical. To be noted: for near-infrared fluorescence signal intensity: MAA 0 mg/mL.
For data set [2] the following is noted: cited from earlier work.

Molecules are shown by their SMILES.

For the molecule `CC1(C)C(/C=C/C=C/C=C/C=C2\N(CCCCS(=O)(=O)O)c3ccc4ccccc4c3C2(C)C)=[N+](CCCCS(=O)(=O)[O-])c2ccc3ccccc3c21` [ICG, indocyanine green], the “near-infrared fluorescence signal intensity” value in data set [1] (ICG 1.3 (μN)) came to 18; in data set [1] (ICG 3.9 (μN)) it was 120; in data set [1] (ICG 6.5 (μN)) it was 212; in data set [1] (ICG 9.0 (μN)), 289; in data set [1] (ICG 12.9 (μN)), 363; in data set [1] (ICG 25.8 (μN)), 466. In addition, the “near-infrared fluorescence signal intensity” value in data set [1] (ICG 38.7 (μN)) is 425; in data set [1] (ICG 51.6 (μN)), 399; in data set [1] (ICG 64.5 (μN)), 374; in data set [1] (ICG 77.4 (μN)) it was 332; in data set [1] (ICG 103 (μN)), 289; in data set [1] (ICG 258 (μN)), 139. Besides, the “near-infrared fluorescence signal intensity” value in data set [1] (ICG 516 (μN)) came to 71; in data set [1] (ICG 774 (μN)), 39; in data set [1] (ICG 1032 (μN)) it was 30. Further, the “ICG concentration with the highest value of near-infrared fluorescence signal intensity” value in data set [1] (MAA was not treated) was 25.8 µM. Besides, the clinical safety entry in data set [2] (18 breast cancer patients (T. Kitai, et al., Breast Cancer, 12:211-215, 2005)) is on record as “safe clinical use”. In addition, the “elimination after injection into the human body” value in data set [2] (human body) was “decomposed and disappears or is excreted in the urine or feces within an hour”.
